Assay results reported in article PMC7211195 (Investigational New Drugs, 2019).
Read-outs that look alike come from different tables or passages of the source.

Columns and labels:
[1] = Lapatinib pharmacokinetics and uptake in rat cerebrospinal fluid (CSF); format: in vivo, rats; conditions: for MRT last: read-out: MRT0-t
Procedure: This study was conducted on rats, which are a promising model to predict P-gp-based drug-drug interactions at the human BBB [15]. The animals were allowed to acclimate for one week before the beginning of the experiments. Adult male Wistar-strain rats (weight 470–525 g) were used in the study. The animals were maintained under standard breeding conditions with a 12/12 h light-dark cycle (lights on at 6.00 a.m., lights off at 6.00 p.m.) at constant room temperature (23 ± 2 °C), relative humidity (55 ± 10%) and ad libitum access to food and water. The experimental protocol for this study was reviewed and approved by the Local Ethics Committee. To obtain consistent data, the study was based on the required minimum number of animals and observation time. […] Three rats were used at each time point (n = 3). In total, the research was conducted on 66 animals (n = 33 in the experimental group and n = 33 in the control group).
Elacridar was freshly dissolved in a vehicle at an initial concentration of 20 mg/mL. […] A volume of 80 μL of blood was collected from each rat by cutting off a piece of its tail. The blood samples were collected into heparinized test tubes at the following time points: before treatment (time 0), 5 min, 30, min, and 1, 2, 3, 4, 6, 8, 12, and 24 h after administration of the drugs, and they were immediately centrifuged at 2880 g for 10 min at 4 °C. The anaesthetized rats (anaesthetized by intramuscular administration of 50 mg/kg ketamine and 10 mg/kg xylazine) were prepared for cisterna magna puncture. The hair over the puncture was removed and the skin was disinfected with alcohol. The animals were placed in a recumbent position with an elevated rear part of the body. The animals’ heads were slightly flexed and immobilized with the operator’s left hand. The space between the occiput rostrally and the atlas (C1) of the spinal column caudally was gently palpated with the left thumb. A 0.7 × 20 G needle with polyethylene tubing (Terumo Poland, Warsaw, Poland) was gently inserted at an approximate angle of 80–90° through the skin with the operator’s right hand into the midsagittal region. The moment that dura mater perforation was perceptible, a small amount of CSF was found in the needle tubing. To sample additional CSF, a 1 mL insulin syringe (Becton Dickinson, Warsaw, Poland) was used to collect 80–120 μL of CSF by very gentle aspiration. Only clear CSF was collected for further analysis. […] The animals’ brains were immediately dissected, washed in 0.9% NaCl and divided along the longitudinal axis. One of the brain hemispheres was again rinsed three times with 5 mL of 0.9% NaCl, weighed and homogenized with 0.9% NaCl (4 mL per 1 g of BT) in an Ultra-Turrax homogenizer (Witko, Łódź, Poland). The homogenate was then centrifuged at 4500 g for 10 min. All samples of the rat BP, CSF, and BT homogenate supernatant were stored at −80 °C until analysis.
The chromatographic analysis was conducted using a 1260 Infinity system (Agilent Technologies, Santa Clara, USA) equipped with a Kinetex® C18 column (50 × 4.6 mm, 2.6 μm, Phenomenex, Torrance, USA), which was maintained at 35 °C. The mobile phase consisted of 0.1% formic acid (v/v) in water with 5 mM ammonium formate (solvent A) and acetonitrile with 10% phase A (v/v, solvent B). The analyte and internal standard (IS, erlotinib) were eluted using a gradient run of 10 min as follows: 95% A at 0–2 min; 95%–5% A at 2–4 min; 5% A at 4–5 min; 5%–95% A at 5–6 min; 95% A at 6–10 min. The flow rate and injection volume were set at 0.7 mL/min and 10 μL, respectively. The needle was washed for 30 s in a mixture of acetonitrile, methanol, isopropanol, water, and formic acid (50:20:15:15:0.25, v/v/v/v/v).

[2] = cited from earlier work
[3] = parameters: method as in PMID 19056914; conditions: cited from earlier work
[4] = Stability of lapatinib in QC samples, BP samples and standard solutions; format: physicochemical; conditions: for stability, deviation: low and high QC samples
Text: Data acquisition and processing were controlled with Analyst 1.5.2 software (Sciex, Framingham, USA).

[5] = parameters: method as in PMID 25547867; conditions: cited from earlier work
[6] = cerebrospinal fluid, lapatinib 100 mg/kg oral + 5 mg/kg elacridar (IE+L)
[7] = cerebrospinal fluid, lapatinib 100 mg/kg oral alone (IIL)
[8] = male, Wistar, rat, cerebrospinal fluid (CSF), po, 100 mg/kg, lapatinib p.o. 100 mg/kg alone, read-out: Clapatinib in CSF, S (medium value)
[9] = male, Wistar, rat, cerebrospinal fluid (CSF), po, 100 mg/kg, lapatinib p.o. 100 mg/kg alone, read-out: Clapatinib in CSF, single rat
[10] = male, Wistar, rat, cerebrospinal fluid, oral, lapatinib 100 mg/kg + elacridar, read-out: Clapatinib in CSF, S
[11] = male, Wistar, rat, cerebrospinal fluid, oral, lapatinib 100 mg/kg + elacridar, read-out: Clapatinib in CSF, single rat
[12] = male, Wistar, rat, cerebrospinal fluid, po, 100 mg/kg, cerebrospinal fluid, lapatinib 100 mg/kg oral + 5 mg/kg elacridar (IE+L)
[13] = male, Wistar, rat, cerebrospinal fluid, po, 100 mg/kg, lapatinib 100 mg/kg oral alone (IIL)

In the case of `CS(=O)(=O)CCNCc1ccc(-c2ccc3ncnc(Nc4ccc(OCc5cccc(F)c5)c(Cl)c4)c3c2)o1` [lapatinib, N-{3-Chloro-4-[(3-fluorobenzyl)oxy]phenyl}-6-[5-({[2-(methylsulfonyl)ethyl]amino}methyl)-2-furyl]-4-quinazolinamine], the “AUC0-∞ increase by elacridar” value ([1]; CSF) is reported as 1.5 fold, the “Cmax increase in IE+L vs control” value ([1]; CSF) is reported as 2.4 fold and the “Kp decrease in IL+E group vs control” value ([1]; CSF) is reported as 42.9%. The “t0.5 longer in the presence of elacridar” value ([1]; CSF) was 2.6 times, the “AUC0-t elevated in IE+L” value ([1]; CSF, IE+L vs IIL group) was 61.2% and the “Cmax increase with elacridar” value ([1]; CSF, IE+L vs IIL group) was 136.4%. The AUMC0-t [1, 6] was 1620.02 ng × h^2/mL, the “AUMC0-∞” value [1, 6] was 2725.51 ng × h^2/mL and the AUMC0-t [1, 7] was 1257.21 ng × h^2/mL. For the same compound, the “AUMC0-∞” value [1, 7] was 1767.90 ng × h^2/mL, the Kp ([1]; male, Wistar, rat, CSF / plasma, oral, 100 mg/kg, IIL group, read-out: Cmax,CSF/Cmax,BP ratio) was 0.012 and the Kp ([1]; male, Wistar, rat, CSF / plasma, oral, with elacridar 5 mg/kg intraperitoneally, 30 min before lapatinib, IE+L group, read-out: Cmax,CSF/Cmax,BP ratio) was 0.026. For the same compound, the concentration at 0.25 h ([1]; male, Wistar, rat, cerebrospinal fluid (CSF), po, 100 mg/kg, lapatinib p.o. 100 mg/kg alone, 0.25 h, read-out: Clapatinib in CSF, S (medium value)) was 3.73 ng/mL, the concentration at 1 h [1, 8] was 38.5 ng/mL and the concentration at 1 h [1, 9] was 38.5 ng/mL. For the same compound, the concentration at 2 h [1, 8] was 10.8 ng/mL, the concentration at 2 h [1, 9] was 10.8 ng/mL and the concentration at 3 h [1, 8] was 12.2 ng/mL. The concentration at 3 h [1, 9] was 9.49 ng/mL, the concentration at 4 h [1, 8] was 13.8 ng/mL and the concentration at 4 h [1, 9] was 13.8 ng/mL. The concentration at 6 h [1, 8] was 26.9 ng/mL, the concentration at 6 h [1, 9] was 26.9 ng/mL and the concentration at 8 h [1, 8] was 24.4 ng/mL. For the same compound, the concentration at 8 h [1, 9] was 24.4 ng/mL, the concentration at 12 h [1, 8] was 7.23 ng/mL and the concentration at 0.5 h ([1]; male, Wistar, rat, cerebrospinal fluid, oral, lapatinib 100 mg/kg + elacridar, 0.5 h, read-out: Clapatinib in CSF, S) was 40.7 ng/mL. The concentration at 1 h [1, 10] was 30 ng/mL, the concentration at 2 h [1, 10] was 75.7 ng/mL and the concentration at 3 h [1, 10] was 51.2 ng/mL. For the same compound, the concentration at 3 h [1, 11] was 45.6 ng/mL, the concentration at 4 h [1, 10] was 91 ng/mL and the concentration at 4 h [1, 11] was 91 ng/mL. For the same compound, the concentration at 6 h [1, 10] was 4.27 ng/mL, the concentration at 6 h [1, 11] was 4.27 ng/mL and the concentration at 8 h [1, 10] was 1.03 ng/mL. The concentration at 8 h [1, 11] was 1.03 ng/mL, the concentration at 12 h [1, 10] was 2.62 ng/mL and the concentration at 12 h [1, 11] was 2.62 ng/mL. For the same compound, the concentration at 24 h [1, 10] was 2.84 ng/mL, the concentration at 24 h [1, 11] was 2.84 ng/mL and the k el ([1]; male, Wistar, rat, cerebrospinal fluid, po, 100 mg/kg) was 6.39e-05 s⁻¹. For the same compound, the AUC(0-inf) [1, 12] was 387 ng·h/mL, the AUC(0-t) [1, 12] was 356 ng·h/mL and the Cmax [1, 12] was 91 ng/mL. For the same compound, the Tmax [1, 12] was 4 h, the MRT last [1, 12] was 4.55 h and the MRT last ([1]; male, Wistar, rat, cerebrospinal fluid, po, 100 mg/kg, cerebrospinal fluid, lapatinib 100 mg/kg oral alone (IIL)) was 5.7 h. For the same compound, the AUC(0-inf) [1, 13] was 252 ng·h/mL, the AUC(0-t) [1, 13] was 221 ng·h/mL and the Cmax [1, 13] was 38.5 ng/mL. For the same compound, the Tmax [1, 13] was 1 h, the Kp ([1]; male, Wistar, rat, cerebrospinal fluid, po, 100 mg/kg, read-out: Kp (tissue-to-plasma partition coefficient, AUC0-∞-tissue/AUC0-∞-plasma)) was 0.007 and the “binds with plasma proteins” value [2] was 99%. The “Kp,BT” value ([3]; WT mice, 24-h intravenous administration) was 0.04, the “Kp,BT times greater than in WT mice” value ([3]; mdr1a/b(−/−)/bcrp(−/−) mice) was 40 times and the “postpreparative stability, change in the concentration” value ([4]; BP samples and standard solutions, 24 h and 48 h in the autosampler at 4 °C) was < 15%. For the same compound, the “stability, deviation” value ([4]; three freeze-thaw cycles at −80 °C) was < 5%, the “stability, deviation” value ([4]; three months of storage at −80 °C) was < 15% and the “patients with BM responding to lapatinib therapy” value [5] was 2.6–6.0%.
